Laboratory results published in article PMC9860980, “Pharmacokinetics and Pharmacodynamics (PK/PD) of Corallopyronin A against Methicillin-Resistant Staphylococcus aureus” (Pharmaceutics, 2022).

Columns and labels:
[1] = test system: S. aureus strain ATCC 33591 (MRSA-strain); details: 5 mg/kg IP TID; 24 h post infection
Method: Organ samples were thawed and homogenized using a Polytron tissue homogenizer after addition of 3 mL isotonic sodium chloride solution. First, a calibration curve was prepared by spiking different concentrations of CorA into the respective matrix from CD-1 mice. Caffeine was used as an internal standard. In addition, quality control samples (QCs) were prepared for CorA for every matrix. For PD samples, calibration curve and QCs were prepared for levofloxacin using the same protocol. The following extraction procedure was used: 50 µL of a sample (calibration sample, QCs, PK or PD sample) was extracted with 20 µL of acetic acid in water (10/90 (v/v)) and 30 µL acetonitrile for 5 min at 800 rpm on an Eppendorf MixMate® vortex mixer. Then, samples were spun down for 20 min at 4 °C and 4000 rpm and supernatants were transferred to new Greiner 96-well V-bottom plates. Samples were analyzed using an Agilent 1290 Infinity II HPLC system (Waldbronn, Germany) coupled to an AB Sciex QTrap6500plus mass spectrometer (Darmstadt, Germany). LC conditions were as follows: column: Agilent Zorbax Exlipse Plus C18, 50 × 2.1 mm, 1.8 µm; temperature: 30 °C; injection volume: 5 µL per sample; flow rate: 800 µL/min. Samples were run under buffered conditions: A: 95% water + 5% acetonitrile + 5 mM ammonium acetate + 40 µL/L acetic acid; B: 95% acetonitrile + 5% water + 5 mM ammonium acetate + 40 µL/L acetic acid. The gradient was as follows: 99% A at 0 min, 99% A until 0.1 min, 99–0% A from 0.1 min to 4.0 min, 0% A until 4.5 min. Mass transitions for controls and compounds are depicted in Table S1. Peaks of PK samples were quantified using the calibration curve. The accuracy of the calibration curve was determined using QCs independently prepared on different days. PK parameters were determined using a non-compartmental analysis with PKSolver.
Inocula were prepared as described previously with the modification that isotonic sodium chloride solution was used instead of PBS [25]. For the neutropenic thigh and the neutropenic lung infection model the S. aureus strain ATCC 33591 (MRSA-strain) was used. For the neutropenic lung infection model an inoculum of 2 × 10^9 cfu/mL was used. For the neutropenic thigh infection model an inoculum of 7 × 10^5 cfu/mL was used.
The model was conducted as described previously. In brief, the following groups were used: (1) inoculum control group with terminal endpoint at 2 h post infection to determine baseline inoculum in vivo; (2) vehicle-treated group receiving 20 mg/kg SC tramadol and vehicle (PEG400/PBS (80:20 (v/v)); (3) levofloxacin group 5 mg/kg IP three times a day (TID) (t = 2, 6 and 10 h post infection); (4) CorA 60 mg/kg IP TID (t = 2, 6 and 10 h post infection) and (5) CorA 100 mg/kg IP BID (t = 2 and 6 h post infection). The endpoint for groups no. 2–5 was 24 h post infection. A solution of […].

[2] = test system: S. aureus strain ATCC 33591 (MRSA-strain); assay: Neutropenic lung infection model with MRSA; format: in vivo, Staphylococcus aureus; details: 100 mg/kg IP (t = 2 h post infection); 24 h post infection
Method: Female, 8-week-old CD-1 mice (Charles River, Sulzfeld, Germany) were used (n = 6 animals per group). Animals were rendered neutropenic by administration of 150 mg/kg and 100 mg/kg cyclophosphamide IP on days -4 and -1, respectively. On the day of infection (day 0), mice received 15 µL of the inoculum administered via an Aeroneb® nebulizer device (Kent Scientific, Torrington, CT, USA) under anesthesia (100 mg/kg ketamine and 10 mg/kg xylazine). Mice were treated with (I) vehicle IP (PEG400/PBS), (II) with levofloxacin at 100 mg/kg IP (t = 2 h post infection, positive control group), (III) CorA at 60 mg/kg IP TID (t = 2, 5 and 9 h post infection) or (IV) CorA at 60 mg/kg IP (t = 2 h post infection) and 100 mg/kg SC BID (t = 5 and 9 h post infection).
Twenty-four hours after infection, mice were euthanized, blood was removed from the heart and lungs were aseptically removed. Whole blood was collected into Eppendorf (Hamburg, Germany) tubes coated with 0.5 M EDTA, immediately spun down at 13,000 rpm for 10 min at 4 °C, the plasma transferred into a new Eppendorf tube and stored at −80 °C until analysis. Organs were homogenized in isotonic sodium chloride solution and plated onto blood agar plates in duplicates in serial dilutions and incubated at 37 °C for 24 h.

Compound: C[C@H]1COc2c(N3CCN(C)CC3)c(F)cc3c(=O)c(C(=O)O)cn1c23 [Levofloxacin, reference compound]
- bacterial burden in thigh tissue [1]: significant reduction
- reduction of bacterial burden in lung tissue compared to the vehicle-treated group [1]: approximately 2 log10-units
- reduction in bacterial burden in lung tissue [2]: more than 2 log10-units
